Experiments:
[1] = tested on: oral squamous carcinoma cell lines; conditions: cited from earlier work
[2] = tested on: p70-S6K1-pT389 (mTORC1 substrate); assay: Immunoblot of mTORC1 substrate p70-S6K1-pT389 after insulin/aa induction; format: cell-based; conditions: astrin knockdown, insulin and aa 10 minutes; Rapamycin 100 nM, PP242 250 nM
Protocol: Experiments were performed in HeLa α Kyoto cells, and BT474, MDA-MB-231, MDA-MB-453, T-47D, MCF-7 breast cancer cell lines. […] Cultivation of breast cancer cell lines T-47D, BT474, MDA-MB-231 and MDA-MB-453 was done in the following media: RPMI (PAA, Pasching, Austria) supplemented with 100 nM insulin. MCF7 cells were cultivated in RPMI (PAA, Pasching, Austria). Insulin/aa induction was done as described (Sonntag et al., 2012). Prior to stress induction with 500 μM Arsenite or 2 mM H2O2, cells were starved for 16 h in DMEM without Glucose and fetal calf serum (PAA, Pasching, Austria) supplemented with 1.5% L-glutamine.
Stress granules were analysed after 30 min. stress induction. Apoptosis was analysed after 1-3 hours stress induction. Inhibitors were obtained from Calbiochem, Merck KGaA, Darmstadt, Germany and Sigma Aldrich, St. Louis, USA; dissolved in DMSO, and applied 30 min. prior to all induction regimens, at the following concentrations: Rapamycin (100 nM), PP242 (250 nM), Wortmannin (200 nM), Cycloheximide (2 μg/mL); HeLa cells were synchronized with Nocodazole (400 ng/mL) and subsequent mitotic shake off at G2/M, and released as described (Thein, K. H., Kleylein-Sohn, J., Nigg, E. A., and Gruneberg, U. (2007). Astrin is required for the maintenance of sister chromatid cohesion and centrosome integrity. J Cell Biol 178, 345-354). […]

SMILES	cytotoxicity [1]	p70-S6K1-pT389 in astrin deficient cells [2]
CCCCCCCC/C=C\CCCCCCCCCCCCOP(=O)([O-])OCC[N+](C)(C)C [Erufosine]	dose-dependent cytotoxicity in all cell lines	–
CC(C)n1nc(-c2cc3cc(O)ccc3[nH]2)c2c(N)ncnc21 [PP242]	–	potently inhibited

Reference: patent US10041933B2, “Modulators of the interaction of astrin and raptor, and uses thereof in cancer therapy” (ALBERT-LUDWIGS-UNIVERSITÄT FREIBURG, priority 2013, dated 2018)
